Measurements published in patent US8895079B2, “Combinations of botanical extracts for promoting cardiovascular health” (National Research Council of Canada, priority 2005, dated 2014).
Marks after values point to notes of the source that are not given here.

Assays:
Assay type in all cases: in vivo, Male Golden Syrian hamsters
Conditions in all cases: relative expression in reference to a housekeeping gene, Example 1, 4 weeks
liver CYP7A1 mRNA = assay: Example 1: liver CYP7A1 mRNA expression, real-time PCR
Procedure: (§1) Experiments were also conducted to determine the effect on the expression of genes associated with cholesterol in the liver and intestine. Total RNA was extracted and mRNA was converted to cDNA. The mRNA expression was measured by real-time PCR with four repeats and calculated as relative expression in reference to internal control of a housekeeping gene for each sample. Table 5, FIG. 8b and FIG. 8c summarize the effect of BBRCI and PS on the mRNA expression of CYP7A1 and CYP27A1 in the liver. BBRCI and PS alone tended to increase mRNA expression of both genes. CYP7A1 and CYP27A1 are two rate-limiting enzymes controlling bile acid synthesis, which is one mechanism through which the body removes cholesterol by converting it into bile acids. When BBRCI and PS were combined, a synergistic action appeared to happen.

liver CYP27A1 mRNA = assay: Example 1: liver CYP27A1 mRNA expression, real-time PCR
Procedure: as §1

[1] = test system: liver HMG-CoA reductase mRNA; assay: Example 1: liver HMG-CoA reductase mRNA expression, real-time PCR
Procedure: Experiments were also conducted to determine the effect on the expression of genes associated with cholesterol in the liver and intestine. Total RNA was extracted and mRNA was converted to cDNA. The mRNA expression was measured by real-time PCR with four repeats and calculated as relative expression in reference to internal control of a housekeeping gene for each sample. Table 5 and FIG. 8a summarize the effect of BBRCI and PS alone or in combination on liver HMG-CoA reductase. […] HMG-CoA reductase is a rate-limiting enzyme in cholesterol biosynthesis. […] When a strong action occurs on cholesterol reduction through inhibiting cholesterol absorption, cholesterol biosynthesis is increased as compensatory response to the cholesterol loss due to the reduced absorption. The powerful synergistic action of BBRCI and PS on HMG-CoA reductase mRNA expression implies that the combination of these materials may act synergistically to reduce blood cholesterol, possibly by inhibiting cholesterol absorption.

- CYP7A1 mRNA expression (liver CYP7A1 mRNA): 1.30 ± 0.66
Compound: COc1ccc2cc3[n+](cc2c1OC)CCc1cc2c(cc1-3)OCO2 [BBRCI, Berberine chloride]
- CYP27A1 mRNA expression (liver CYP27A1 mRNA): 1.27 ± 0.31
- HMG-CoA reductase mRNA expression [1]: 0.98 ± 0.10^b
